Measurements as given in patent US8865704B2, “Wnt pathway antagonists” (Siena Biotech S.p.A., priority 2009, dated 2014).

System: Wnt/β-catenin pathway
Test: Wnt reporter assay (TCF-Luciferase, Firefly) in DBTRG-05MG cells
Format: cell-based
Settings: Homo sapiens, 24 hours after compound addition
Protocol: TCF-Luciferase: Three copies of a 4×TCF responsive elements were cloned into the pcDNA3.1/Zeo(+) vector (Invitrogen) after deletion of the constitutive CMV promoter and the insertion of the Firefly Luciferase from Promega (phFL-TK) to measure the activity of the Wnt/β-catenin pathway. The resulting plasmid was sequenced for quality control.
Cells were grown in 20 μg/ml Zeocin and 20 μg/ml Zeocin plus 30 μg/ml Hygromicin respectively. The cells were plated at a density of 6500 cells/well in poly-D-lysine pre-treated 96 well-plates.
IC50 determination: 36 hours after plating cells were incubated with 8-points (60 μM-40 μM-20 μM-10 μM-5 μM-1.66 μM-0.55 μM-0.185 μM) dilutions compound (0.6% DMSO (v/v)). Each compound was tested in triplicate in single plate. Luciferase detection was done with Dual-Luciferase Reporter Assay System (Promega). 24 hours after compound addition, media was removed and 30 μl of 1× lysis buffer was added to each well for 30 minutes. To each well 45 μl of Dual-Glo Luciferase reagent (Promega) were added and after 1 second delay Luciferase was detected for 1 second using Mithras LB940 instrument. After Firefly luciferase quantification 45 μl of Dual Stop & Glo reagent (Promega) were added to each well and Firefly Renilla was detected using the same parameters described before.
Data were expressed as % of control for Firefly and Renilla luciferase independently; values were calculated using XLFit version 4.2, with a four parameters sigmoid function (XLFit model 205).

SMILES	IC50
O=c1[nH]c2ccccc2c(=O)n1C[C@H]1CC[C@H](C(=O)N2CCN(c3ncccn3)CC2)CC1 [Example 1, trans-3-[4-(4-Pyrimidin-2-yl-piperazine-1-carbonyl)-cyclohexylmethyl]-1H-quinazoline-2,4-dione]	0.3 to 30 µM
Cn1c(=O)n(C[C@H]2CC[C@H](C(=O)N3CCN(c4ccccc4)CC3)CC2)c(=O)c2ccccc21 [Example 2, trans-1-Methyl-3-[4-(4-phenyl-piperazine-1-carbonyl)-cyclohexylmethyl]-1H-quinazoline-2,4-dione]	0.3 to 30 µM
O=C(C1CCCO1)N1CCN(C(=O)[C@H]2CC[C@H](Cn3c(=O)[nH]c4ccccc4c3=O)CC2)CC1 (stereo partly shown) [Example 4, 3-{4-[4-(Tetrahydro-furan-2-carbonyl)-piperazine-1-carbonyl]-cyclohexylmethyl}-1H-quinazoline-2,4-dione]	0.3 to 30 µM
CC(C)C(=O)N1CCN(C(=O)[C@H]2CC[C@H](CN3C(=O)CC(c4ccccc4)NC3=O)CC2)CC1 (stereo partly drawn) [Example 6, 3-[trans-4-(4-Isobutyryl-piperazine-1-carbonyl)-cyclohexylmethyl]-6-phenyl-dihydro-pyrimidine-2,4-dione]	0.3 to 30 µM
O=C(C1CC1)N1CCN(C(=O)[C@H]2CC[C@H](CN3Cc4ccccc4NC3=O)CC2)CC1 [Example 7, 3-[trans-4-(4-Cyclopropanecarbonyl-piperazine-1-carbonyl)cyclohexylmethyl]-3,4-dihydro-1H-quinazolin-2-one]	0.3 to 30 µM
COc1ccc2[nH]c(=O)n(C[C@H]3CC[C@H](C(=O)N4CCOCC4)CC3)c2c1 [Example 8, 6-Methoxy-1-[trans-4-(morpholine-4-carbonyl)-cyclohexylmethyl]-1,3-dihydro-benzoimidazol-2-one]	0.3 to 30 µM
COc1ccc2c(c1)n(C[C@H]1CC[C@H](C(=O)N3CCOCC3)CC1)c(=O)n2C [Example 9, 5-Methoxy-1-methyl-3-[trans-4-(morpholine-4-carbonyl)-cyclohexylmethyl]-1,3-dihydro-benzoimidazol-2-one]	0.3 to 30 µM
O=C(C1CC1)N1CCN(C(=O)[C@H]2CC[C@H](Cn3c(=O)[nH]c4ccc(Cl)cc43)CC2)CC1 [Example 11, 6-Chloro-1-[trans-4-(4-cyclopropanecarbonyl-piperazine-1-carbonyl)cyclohexylmethyl]-1,3-dihydro-benzoimidazol-2-one]	0.3 to 30 µM
CC(=O)N1CCN(C(=O)[C@H]2CC[C@H](CN3C(=O)Cc4ccccc4C3=O)CC2)CC1 [Example 12, 2-[trans-4-(4-Acetyl-piperazine-1-carbonyl)-cyclohexylmethyl]-4H-isoquinoline-1,3-dione]	0.3 to 30 µM
O=C1CN(C[C@H]2CC[C@H](C(=O)N3CCN(c4ccccn4)CC3)CC2)C(=O)c2ccccc2N1 [Example 13, 4-[trans-4-(4-pyridin-2-yl-piperazine-1-carbonyl)-cyclohexylmethyl]-3,4-dihydro-1H-benzo[e][1,4]diazepine-2,5-dione]	0.3 to 30 µM
CN1C(=O)CN(C[C@H]2CC[C@H](C(=O)N3CCN(c4ccccn4)CC3)CC2)C(=O)c2ccccc21 [Example 14, 1-Methyl-4-[trans-4-(4-pyridin-2-yl-piperazine-1-carbonyl)-cyclohexylmethyl]-3,4-dihydro-1H-benzo[e][1,4]diazepine-2,5-dione]	0.3 to 30 µM
CN1C(=O)N(C[C@H]2CC[C@H](C(=O)N3CCN(c4ccccn4)CC3)CC2)C(=O)Cc2ccccc21 [Example 15, 1-Methyl-3-[trans-4-(4-pyridin-2-yl-piperazine-1-carbonyl)-cyclohexylmethyl]-1,5-dihydro-benzo[d][1,3]diazepine-2,4-dione]	0.3 to 30 µM
O=C1Nc2ccccc2CCN1C[C@H]1CC[C@H](C(=O)N2CCN(c3ccccn3)CC2)CC1 [Example 16, 3-[trans-4-(4-pyridin-2-yl-piperazine-1-carbonyl)-cyclohexylmethyl]-1,3,4,5-tetrahydro-benzo[d][1,3]diazepin-2-one]	0.3 to 30 µM
COc1ccc2c(c1)n(C[C@H]1CC[C@H](C(=O)N3CCN(C(C)=O)CC3)CC1)c(=O)n2C [Example 17, 3-[trans-4-(4-Acetyl-piperazine-1-carbonyl)-cyclohexylmethyl]-5-methoxy-1-methyl-1,3-dihydro-benzoimidazol-2-one]	0.3 to 30 µM
O=C(C1CCC(Cn2cnc3ccccc3c2=O)CC1)N1CCN(Cc2ccccc2)CC1 (stereo not shown) [Example 19]	0.3 to 30 µM
O=C(C1CCC(Cn2c(=O)[nH]c3ccccc3c2=O)CC1)N1CCOCC1 (stereo not shown) [Example 22]	0.3 to 30 µM
O=C(Nc1cccnc1)C1CCC(Cn2c(=O)[nH]c3ccccc3c2=O)CC1 (stereo not shown) [Example 23]	0.3 to 30 µM
O=c1[nH]c2ccccc2c(=O)n1C[C@H]1CC[C@H](C(=O)N2CCN(Cc3ccccc3)CC2)CC1 [Example 24]	0.3 to 30 µM
O=c1[nH]c2ccc(Cl)cc2c(=O)n1C[C@H]1CC[C@H](C(=O)N2CCN(Cc3ccccc3)CC2)CC1 [Example 25]	0.3 to 30 µM
COc1ccc(N2CCN(C(=O)C3CCC(Cn4c(=O)[nH]c5ccccc5c4=O)CC3)CC2)cc1 (stereo not shown) [Example 28]	0.3 to 30 µM
CC(C)C(=O)N1CCN(C(=O)[C@H]2CC[C@H](Cn3c(=O)[nH]c4ccccc4c3=O)CC2)CC1 [Example 30]	0.3 to 30 µM
COCC(=O)N1CCN(C(=O)[C@H]2CC[C@H](Cn3c(=O)[nH]c4ccccc4c3=O)CC2)CC1 [Example 31]	0.3 to 30 µM
O=C(CCC1CCCC1)N1CCN(C(=O)[C@H]2CC[C@H](Cn3c(=O)[nH]c4ccccc4c3=O)CC2)CC1 [Example 32]	0.3 to 30 µM
CC(=O)N1CCN(C(=O)[C@H]2CC[C@H](Cn3c(=O)[nH]c4ccccc4c3=O)CC2)CC1 [Example 33]	0.3 to 30 µM
CC(C)(C)NC(=O)N1CCN(C(=O)[C@H]2CC[C@H](Cn3c(=O)[nH]c4ccccc4c3=O)CC2)CC1 [Example 34]	0.3 to 30 µM

SMILES	IC50
CCCCC(=O)N1CCN(C(=O)[C@H]2CC[C@H](Cn3c(=O)[nH]c4ccccc4c3=O)CC2)CC1 [Example 35]	0.3 to 30 µM
O=C(c1ccno1)N1CCN(C(=O)[C@H]2CC[C@H](Cn3c(=O)[nH]c4ccccc4c3=O)CC2)CC1 [Example 36]	0.3 to 30 µM
COc1ccc(CN2CCN(C(=O)[C@H]3CC[C@H](Cn4c(=O)[nH]c5ccccc5c4=O)CC3)CC2)cc1 [Example 38]	0.3 to 30 µM
COc1cccc(CN2CCN(C(=O)[C@H]3CC[C@H](Cn4c(=O)[nH]c5ccccc5c4=O)CC3)CC2)c1 [Example 39]	0.3 to 30 µM
Cc1ccc(CN2CCN(C(=O)[C@H]3CC[C@H](Cn4c(=O)[nH]c5ccccc5c4=O)CC3)CC2)o1 [Example 40]	0.3 to 30 µM
CC(C)N1CCN(C(=O)[C@H]2CC[C@H](Cn3c(=O)[nH]c4ccccc4c3=O)CC2)CC1 [Example 41]	0.3 to 30 µM
O=C(N1CCCC1)N1CCN(C(=O)[C@H]2CC[C@H](Cn3c(=O)[nH]c4ccccc4c3=O)CC2)CC1 [Example 42]	0.3 to 30 µM
CC(C)N1CCN(C(=O)[C@H]2CC[C@H](Cn3c(=O)[nH]c4ccc(Cl)cc4c3=O)CC2)CC1 [Example 43]	0.3 to 30 µM
O=C1CC(c2ccccc2)NC(=O)N1C[C@H]1CC[C@H](C(=O)N2CCN(c3ccccc3)CC2)CC1 (stereo partly shown) [Example 44]	0.3 to 30 µM
O=C1Nc2ccccc2CN1C[C@H]1CC[C@H](C(=O)N2CCN(c3ccccc3)CC2)CC1 [Example 45]	0.3 to 30 µM
CN1C(=O)N(C[C@H]2CC[C@H](C(=O)N3CCN(c4ccccc4)CC3)CC2)Cc2ccccc21 [Example 46]	0.3 to 30 µM
O=c1[nH]c2ccccc2c(=O)n1C[C@H]1CC[C@H](C(=O)Nc2ccc3ncsc3c2)CC1 [Example 49]	0.3 to 30 µM
CC(c1ccccc1)N1CCN(C(=O)C2CCC(Cn3c(=O)[nH]c4ccccc4c3=O)CC2)CC1 (stereo not shown) [Example 50]	0.3 to 30 µM
CC(C)C(=O)N1CCN(C(=O)[C@H]2CC[C@H](Cn3c(=O)[nH]c4cccc(Cl)c4c3=O)CC2)CC1 [Example 51]	0.3 to 30 µM
CC(=O)N1CCN(C(=O)[C@H]2CC[C@H](Cn3c(=O)c4ccccc4n(C)c3=O)CC2)CC1 [Example 52]	0.3 to 30 µM
COCC(=O)N1CCN(C(=O)[C@H]2CC[C@H](Cn3c(=O)c4ccccc4n(C)c3=O)CC2)CC1 [Example 53]	0.3 to 30 µM
CC(C)C(=O)N1CCN(C(=O)[C@H]2CC[C@H](Cn3c(=O)[nH]c4cccc(F)c4c3=O)CC2)CC1 [Example 54]	0.3 to 30 µM
COc1cccc2[nH]c(=O)n(C[C@H]3CC[C@H](C(=O)N4CCN(C(=O)C(C)C)CC4)CC3)c(=O)c12 [Example 55]	0.3 to 30 µM
CC(C)C(=O)N1CCN(C(=O)[C@H]2CC[C@H](Cn3c(=O)n(C)c4ccccc43)CC2)CC1 [Example 61]	0.3 to 30 µM
COCC(=O)N1CCN(C(=O)[C@H]2CC[C@H](Cn3c(=O)[nH]c4ccc(Cl)cc4c3=O)CC2)CC1 [Example 62]	0.3 to 30 µM
O=C(C1CC1)N1CCN(C(=O)[C@H]2CC[C@H](Cn3c(=O)[nH]c4ccc(Cl)cc4c3=O)CC2)CC1 [Example 63]	0.3 to 30 µM
CC(C)Cn1c(=O)n(C[C@H]2CC[C@H](C(=O)N3CCN(C(=O)C4CC4)CC3)CC2)c(=O)c2ccccc21 [Example 64]	0.3 to 30 µM
COc1ccc2[nH]c(=O)n(C[C@H]3CC[C@H](C(=O)N4CCN(C(=O)C5CCCC5)CC4)CC3)c(=O)c2c1 [Example 65]	0.3 to 30 µM
CN1C(=O)N(C[C@H]2CC[C@H](C(=O)N3CCN(C(=O)C4CC4)CC3)CC2)Cc2ccccc21 [Example 67]	0.3 to 30 µM
